{"source": "paper PMC4084622", "about": "(Journal of Medicinal Chemistry, 2014)", "origin": "cited, not measured here", "system": "M. tuberculosis", "details": "M. tuberculosis H37Rv, Erdman, and drug-resistant strains; cited from earlier work", "data": [{"smiles": "CC(C)=CCC/C(C)=C/CNCCNC1C2CC3CC(C2)CC1C3", "note": "(stereo not shown) [compound 1, SQ109]", "values": [{"measurement": "minimum inhibitory concentration (MIC)", "result": "0.7 to 1.56", "unit": "µM"}]}]}
